From patent US10220051B2, “Combination of DNA repair inhibition with bendamustine or gemcitabine in the treatment of cancer” (Institute for Cancer Research, priority 2012, dated 2019)
Entries after “also recorded” stand apart in the source; their conditions may differ.

Assays:
[1] = test system: TDG wild type mouse embryo fibroblast lines (MEFs); experiment: Cell cycle FACS after gemcitabine, wild type MEFs; assay type: cell-based; settings: 50 nM gemcitabine, 48 hours
Experimental: (§1) DNA content analysis via flow cytometry. Following indicated drug treatments, cells were fixed with 70% ethanol. For analysis, cells were stained with propidium iodide, RNase A and sodium citrate. Cells were incubated at 37° C. for 30 minutes before being analyzed using a Becton Dickinson single laser three-fluorescence FACScan flow analyzer and Cell Quest software (Becton Dickinson). DNA content was acquired from 10,000 events and FlowJo software was used to process the data.
(§2) Isogenic, littermate-derived, thymine DNA glycosylase (TDG) wild type and knock-out mouse embryo fibroblast lines (MEFs) were treated with a sub-lethal dose of 50 nM gemcitabine for 48 hours. At the end of the treatment, cells were collected, stained with propidium iodide and analyzed by flow cytometry.

[2] = test system: TDG knock-out mouse embryo fibroblast lines (MEFs); experiment: Cell cycle FACS after gemcitabine, TDG knock-out MEFs; assay type: cell-based; settings: 50 nM gemcitabine, 48 hours
Experimental: as §1, §2

[3] = test system: TDG knock-out MEFs transduced with wild type human TDG cDNA; experiment: Cell cycle FACS after gemcitabine, knock-out MEFs with wild type hTDG; assay type: cell-based, mouse; settings: knockout MEFs reconstituted with wild type TDG
Experimental: (§3) The biologic function of TDG includes a non-enzymatic role as transcriptional co-activator, mediated by protein-protein interactions, and an enzymatic role related to its DNA N-glycosylase activity. To determine whether sensitization to gemcitabine was due to inactivation of TDG enzymatic function, TDG knock-out MEFs transduced with wild type or glycosylase-dead human TDG cDNA were evaluated.

[4] = test system: TDG knock-out MEFs transduced with glycosylase-dead human TDG cDNA; experiment: Cell cycle FACS after gemcitabine, knock-out MEFs with glycosylase-dead hTDG; assay type: cell-based, mouse; settings: versus knock-out cells transduced with wild type human TDG cDNA
Experimental: as §3

[5] = test system: BxPC3 pancreatic cancer cells; experiment: Clonogenic assay, BxPC3 with or without TDG knockdown; assay type: cell-based; settings: TDG knockdown (C8) versus pLKO-infected BxPC3
Experimental: Clonogenic assays were conducted on pancreatic cancer (PaC) cell line BxPC3 infected with empty pLKO vector or with the C8 lentivirus that downregulates TDG. Even in the absence of gemcitabine, colony formation by the TDG knockdown cells was reduced nearly 60% (FIG. 13). In FIG. 10, the maximum number of colonies formed by pLKO-infected BxPC3 cells was set as 100%.

SK28 cells [6] = experiment: SK28 cell viability (MTS assay); assay type: cell-based; settings: SK28, concentration-dependent, quadruplicate
Experimental: (§4) Tests were conducted in quadruplicate.

SK28 cells [7] = experiment: SK28 clonogenic assay; assay type: cell-based; settings: SK28, concentration-dependent, quadruplicate
Experimental: as §4

BxPC3 cells [8] = experiment: MTS assay, TDG inhibitor combinations, BxPC3; assay type: cell-based; settings: 10 μM juglone + increasing BDM, 72 and 96 hours
Experimental: (§5) Two TDG inhibitors, juglone and closantel, were tested for their ability to kill two PaC cell lines, BxPC3 and Panc1 cells, in MTS assays. Cells were treated for 72 and 96 hours with 10 μM juglone and 20 μM closantel, in combination with increasing concentrations of BDM.

MCF7 breast cancer cells = experiment: Killing by juglone combinations, MCF7; assay type: cell-based
[9] = test system: HCT116 colon cancer cells; experiment: Killing by juglone combinations, HCT116; assay type: cell-based
Experimental: [The source words this procedure for another cell line and reports this cell line under the same test.] as §5

SK28 melanoma cells = experiment: Killing by juglone combinations, SK28; assay type: cell-based
BxPC3 cells [10] = experiment: xCelligence proliferation assay, BxPC3; assay type: cell-based; settings: increasing juglone + 45 μM BDM, 24 hours
Experimental: To independently verify the MTS and clonogenic assays described in the preceding Examples, an assay was conducted using a xCelligence real-time cell analyzer (ACEA Biosciences, Inc.), using a label-free, non-invasive method to monitor adherent cell behavior, including proliferation, spreading and compound-mediated cytotoxicity. The system is based on detecting impedance differences within an electrical circuit created in microelectrodes at the base of culture wells; these differences are converted into a cell index (CI), a value that is influenced by a variety of factors, such as cell number, cell size and cell adhesion. The effect of the TDG inhibitor juglone, in combination with bendamustine (BDM) and gemcitabine (GCB), was assessed on the growth of various cancer cells. BxPC3 cells were treated with 45 μM BDM, in combination with increasing concentrations of juglone, and proliferation was followed over 24 hours.

[11] = test system: MCF7 breast cancer cell lines; experiment: xCelligence proliferation assay, MCF7; assay type: cell-based; settings: juglone + BDM

Compound: Nc1ccn([C@@H]2O[C@H](CO)[C@@H](O)C2(F)F)c(=O)n1 [gemcitabine, 2′,2′-difluorodeoxycytidine]
- cells in S phase [1]: 20.7%
- cells in S phase [2]: 52.3%
- response to gemcitabine (flow cytometry) [3]: responded the same as wild type MEFs
- sensitivity to gemcitabine (flow cytometry) [4]: increased sensitivity
- colony formation with increasing gemcitabine [5]: further reduced, and this reduction was greater than pLKO-infected cells expressing TDG

Compound: O=C1C=CC(=O)c2c(O)cccc21 [juglone, 5-hydroxynaphthoquinone]
- cell viability (SK28 cells [6]): reduction of SK28 cell viability
- cell viability (SK28 cells [6]; listed as Juglone): reduce cell viability
- clonogenic capacity / colony-forming ability (SK28 cells [7]): reduction of SK28 cell viability (MTS assay) and colony-forming ability; also recorded: reduction of clonogenic capacity
- clonogenic capacity / colony-forming ability (SK28 cells [7]; listed as Juglone): reduce cell viability and clonogenic capacity
- killing effect in combination with BDM (BxPC3 cells [8]): synergistic killing effect
- killing effect in combination with BDM (MCF7 breast cancer cells; juglone + BDM): synergistic effect
- killing effect in combination with gemcitabine (MCF7 breast cancer cells; juglone + gemcitabine): synergistic killing
- killing in combination with bendamustine ([9]; juglone + bendamustine): more effectively killed
- killing in combination with gemcitabine ([9]; juglone + gemcitabine): more effectively killed
- killing in combination with bendamustine (SK28 melanoma cells; juglone + bendamustine): more effectively killed
- killing in combination with gemcitabine (SK28 melanoma cells; juglone + gemcitabine): more effectively killed
- proliferation (normalized cell index) (BxPC3 cells [10]): suppressed proliferation more than juglone alone
- proliferation (normalized cell index) [11]: A similar result was observed
